pIC50, pKi: −log10 of the molar value.
Columns and labels:
Format in all cases: biochemical
[1] = molecular target: T1, GSK3β (Homo sapiens, UniProt P49841); assay: GSK3β in vitro kinase assay; details: recombinant human GSK3β, 100 μM ATP
T1 construct: purchased New England Biolabs
Summary of the method: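 Radiometric filter-binding assay with GSK3β (1.5 units), 200 μM CREB phosphopeptide, 100 μM ATP plus [γ-32P]ATP, in 20 mM Tris HCl pH7.5, 5 mM DTT, 15 mM MgCl2, 2% DMSO; 30 min at 30° C, stopped with phosphoric acid. 32P incorporation counted by scintillation; IC50 from 10-point titration.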

[2] = molecular target: T2, DYRK1A (Homo sapiens, UniProt Q13627); assay: DYRK1A in vitro kinase assay; details: recombinant human DYRK1A, 100 μM ATP
T2 construct: purchased Upstate
Excerpt: Dual specificity tyrosine phosphorylation regulated kinase 1A (DYRK1A) has been proposed, amongst other functions, to play a role in the regulation of glycogen metabolism in a way similar to GSK3. Some of the example compounds of the present invention were screened against recombinant human DYRK1A in vitro and the determined IC50 values are shown in Table 9. According to our current knowledge inhibition of DYRK1A will have additional positive effect on stimulation of glycogen synthase.
A 10-point titration was set up to determine the IC50 values of selected example compounds against DYRK1A. Assays were performed using 96-well microtiter plates and a final volume of 25 μL/well. Each assay contained 2.3 milliunits of DYRK1A (Upstate), 50 μM Woodtide peptide ([…], Upstate), 20 mM Tris HCl pH 8.0, 10 mM DTT, 5 mM EGTA, 1 mM NaVO3, 31 mM β-glycerophosphate, 15 mM MgCl2 supplemented with 100 μM ATP and 0.5 μCi of [γ-^32P] ATP plus or minus inhibitor in 2% DMSO. Assays were carried out for 60 minutes at 30° C. before stopping the reaction by the addition of an equal volume of 75 mM aqueous phosphoric acid. Samples were then spotted onto a p81 filterplate (Whatman) and a vacuum applied. Wells were washed 3 times with 200 μL of dilute aqueous phosphoric acid before the addition of 50 μL Microscint 40 per well. Incorporation of radioactivity was determined on a Topcount microplate scintillation counter (Packard).

[3] = molecular target: CDK9/cyclin T1 (Homo sapiens, UniProt P50750); assay: Kinase assay CDK9/cyclin T1; details: Ki calculated (Cheng-Prusoff) from experimentally determined IC50 and Km,ATP; read-out: Kinase Inhibition Ki CDK9 - cyclin T1
Summary of the method: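 Radiometric filter assays used recombinant kinases or complexes (2-4 μg) with appropriate polypeptide substrates in pH 7.4 β-glycerophosphate/MOPS buffer. Reactions were started with 15 mM MgCl2 and 100 μM ATP containing [γ-32P]-ATP and run at 30° C. Phosphate incorporated into substrate was counted by scintillation after washing.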

[4] = molecular target: T3, aurora A (Homo sapiens, UniProt O14965); assay: Kinase assay aurora A; details: Ki calculated (Cheng-Prusoff) from experimentally determined IC50 and Km,ATP; read-out: Kinase Inhibition Ki Aurora A
T3 sequence (O14965 1-403): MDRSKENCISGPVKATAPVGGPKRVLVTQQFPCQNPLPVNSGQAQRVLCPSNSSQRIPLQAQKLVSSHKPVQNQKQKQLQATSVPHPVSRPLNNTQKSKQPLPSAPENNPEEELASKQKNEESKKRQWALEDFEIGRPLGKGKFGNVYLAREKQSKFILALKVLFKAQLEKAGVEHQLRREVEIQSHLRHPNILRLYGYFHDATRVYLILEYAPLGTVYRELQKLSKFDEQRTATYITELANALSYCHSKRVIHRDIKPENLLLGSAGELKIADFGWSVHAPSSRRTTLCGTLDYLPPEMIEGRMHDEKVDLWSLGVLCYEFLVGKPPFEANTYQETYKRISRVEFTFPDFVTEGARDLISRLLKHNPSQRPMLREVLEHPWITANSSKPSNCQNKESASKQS
Summary of the method: (§1)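 Radiometric assays measured transfer of radioactive phosphate from ATP onto polypeptide substrates, using 2-4 μg recombinant active enzyme in buffer typically containing 25 mM β-glycerophosphate, 20 mM MOPS, 5 mM EGTA, 1 mM DTT and 1 mM Na3VO3 at pH 7.4. Reactions were stopped on ice, filtered on P81 or GF/C plates and washed with orthophosphoric acid. Incorporated radioactivity was scintillation-counted.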

[5] = molecular target: CDK2/cyclin A (Homo sapiens, UniProt P24941); assay: Kinase assay CDK2/cyclin A; details: Ki calculated (Cheng-Prusoff) from experimentally determined IC50 and Km,ATP; read-out: Kinase Inhibition Ki CDK2 - cyclin A
Summary of the method: as §1

T1 sequence (P49841 whole entry): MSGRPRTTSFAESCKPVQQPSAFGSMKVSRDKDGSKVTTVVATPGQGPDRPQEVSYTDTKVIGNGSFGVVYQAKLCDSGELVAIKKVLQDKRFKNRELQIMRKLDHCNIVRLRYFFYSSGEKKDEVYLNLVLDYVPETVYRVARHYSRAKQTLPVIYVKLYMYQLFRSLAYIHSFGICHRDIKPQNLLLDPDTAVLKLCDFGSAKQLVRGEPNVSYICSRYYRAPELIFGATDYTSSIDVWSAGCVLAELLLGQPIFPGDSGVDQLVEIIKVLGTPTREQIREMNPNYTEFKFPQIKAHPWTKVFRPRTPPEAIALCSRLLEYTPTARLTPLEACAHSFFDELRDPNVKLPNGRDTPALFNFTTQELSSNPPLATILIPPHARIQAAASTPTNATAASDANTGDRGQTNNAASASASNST
CDK9/cyclin T1, sequence (P50750 whole entry, species assumed): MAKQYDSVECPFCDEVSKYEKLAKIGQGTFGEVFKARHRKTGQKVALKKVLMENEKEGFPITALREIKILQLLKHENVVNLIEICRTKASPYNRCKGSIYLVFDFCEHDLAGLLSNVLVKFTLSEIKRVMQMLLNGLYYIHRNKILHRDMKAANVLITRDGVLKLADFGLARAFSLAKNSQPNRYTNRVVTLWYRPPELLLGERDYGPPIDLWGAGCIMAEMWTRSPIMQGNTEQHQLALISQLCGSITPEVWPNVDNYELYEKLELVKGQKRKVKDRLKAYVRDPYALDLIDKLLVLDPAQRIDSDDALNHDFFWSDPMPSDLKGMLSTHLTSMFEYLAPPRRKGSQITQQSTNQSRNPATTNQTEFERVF
CDK9/cyclin T1, sequence (O60563 whole entry partner, species assumed): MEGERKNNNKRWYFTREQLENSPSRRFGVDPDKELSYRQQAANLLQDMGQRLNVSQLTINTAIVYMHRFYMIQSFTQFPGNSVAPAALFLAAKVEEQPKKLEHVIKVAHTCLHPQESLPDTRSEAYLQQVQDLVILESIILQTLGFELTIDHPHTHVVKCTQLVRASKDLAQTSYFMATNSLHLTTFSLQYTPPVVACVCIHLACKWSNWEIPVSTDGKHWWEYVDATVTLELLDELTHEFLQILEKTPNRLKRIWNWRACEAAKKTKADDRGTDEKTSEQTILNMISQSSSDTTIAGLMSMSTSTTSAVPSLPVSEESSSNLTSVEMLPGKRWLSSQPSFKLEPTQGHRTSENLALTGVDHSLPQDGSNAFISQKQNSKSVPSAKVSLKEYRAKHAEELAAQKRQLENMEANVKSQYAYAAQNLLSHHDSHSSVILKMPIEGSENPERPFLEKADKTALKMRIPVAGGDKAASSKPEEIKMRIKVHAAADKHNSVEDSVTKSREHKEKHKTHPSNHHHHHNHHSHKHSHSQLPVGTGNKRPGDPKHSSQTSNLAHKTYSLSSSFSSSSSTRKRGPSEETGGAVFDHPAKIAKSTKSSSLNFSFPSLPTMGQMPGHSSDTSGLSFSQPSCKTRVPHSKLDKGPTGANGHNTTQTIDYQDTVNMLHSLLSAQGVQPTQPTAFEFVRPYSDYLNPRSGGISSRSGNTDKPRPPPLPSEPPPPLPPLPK

| Structure (SMILES) | pIC50 [1] | pIC50 [2] | pKi [3] | pKi [4] | pKi [5] |
| --- | --- | --- | --- | --- | --- |
| Cc1c(-c2ccnc(Nc3cc(Br)cc(C(F)(F)F)c3)n2)sc(=O)n1C [Compound 68, 5-[2-(3-Bromo-5-trifluoromethyl-phenylamino)-pyrimidin-4-yl]-3,4-dimethyl-3H-thiazol-2-one] | 7.21 | 7.14 | 6.85 |  |  |
| Cc1c(-c2ccnc(Nc3cccc(S(=O)(=O)NCCO)c3)n2)sc(=O)n1C [Compound 75, 3-[4-(3,4-Dimethyl-2-oxo-2,3-dihydro-thiazol-5-yl)-pyrimidin-2-ylamino]-N-(2-hydroxy-ethyl)-benzenesulfonamide] | 7.60 | 7.59 | 8.02 | 6.60 | 6.39 |
| CCNS(=O)(=O)c1cccc(Nc2nccc(-c3sc(=O)n(C)c3C)n2)c1 [Compound 62, 3-[4-(3,4-Dimethyl-2-oxo-2,3-dihydro-thiazol-5-yl)-pyrimidin-2-ylamino]-N-ethyl-benzenesulfonamide] | 7.66 | 7.29 | 8.32 | 6.39 | 6.21 |
| CC(=O)Nc1cc(Nc2nccc(-c3sc(=O)n(C)c3C)n2)cc(C(F)(F)F)c1 [Compound 64, N-{3-[4-(3,4-Dimethyl-2-oxo-2,3-dihydro-thiazol-5-yl)-pyrimidin-2-ylamino]-5-trifluoromethyl-phenyl}-acetamide] | 8.52 | 7.11 | 8.24 | 6.77 |  |
| CNc1cc(Nc2nccc(-c3sc(=O)n(C)c3C)n2)cc(C(F)(F)F)c1 [Compound 76, 3,4-Dimethyl-5-[2-(3-methylamino-5-trifluoromethyl-phenylamino)-pyrimidin-4-yl]-3H-thiazol-2-one] | 7.72 | 6.83 | 7.68 | 6.82 |  |
| COCCNS(=O)(=O)c1cccc(Nc2nccc(-c3sc(=O)n(C)c3C)n2)c1 [Compound 67, 3-[4-(3,4-Dimethyl-2-oxo-2,3-dihydro-thiazol-5-yl)-pyrimidin-2-ylamino]-N-(2-methoxy-ethyl)-benzenesulfonamide] | 7.64 | 7.72 | 8.32 | 6.41 | 5.89 |

Source: patent US7902361B2, “Pyrimidin-4-yl-3, 4-thione compounds and their use in therapy” (Cyclacel Limited, priority 2003, dated 2011)
